Values of other authors in patent publication US20170281506A1, “COMPOSITION FOR TOPICAL APPLICATION FOR PREVENTING HAIR LOSS AND STIMULATING HAIR GROWTH” (priority 2011, published 2017).

Test system: men
Conditions: oral, treated constantly for two years

## CC(C)(C)NC(=O)[C@H]1CC[C@H]2[C@@H]3CC[C@H]4NC(=O)C=C[C@]4(C)[C@H]3CC[C@]12C [Finasteride, finasteride]
  participants who maintained or increased the number of hairs after the treatment: 83%
  participants who showed no hair loss: 17%
